Data published in ChEMBL document CHEMBL5390253, “Discovery of Selective and Potent Macrocyclic CDK9 Inhibitors for the Treatment of Osimertinib-Resistant Non-Small-Cell Lung Cancer” (J Med Chem, 2023).
≈ marks a conversion by molar mass, not a printed value. Calls of active or inactive are those of the source. The rule behind the calls is not given here.

Assays:
[1] = biological target: Receptor-type tyrosine-protein kinase FLT3 (Homo sapiens) (UniProt P36888); test: Inhibition of FLT3 (unknown origin) at 100 nM preincubated for 10 mins followed by substrate addition and measured after 60 mins in presence of ATP by ADP-Glo reagent based assay relative to control; conditions: time 70.0 min
[2] = tested on: A549; test: Antiproliferative activity against human A549 cells incubated for 72 hrs by MTT assay; assay type: functional, cell-based; conditions: A549, 72 h
[3] = Downregulation of Mcl-1 in human NCI-H1975 cells at 500 nM relative to control; assay type: functional
[4] = biological target: CDK1/Cyclin A (Homo sapiens) (UniProt P06493+P20248); test: Inhibition of CDK1/Cyclin A2 (unknown origin) at 200 nM preincubated for 10 mins followed by substrate addition and measured after 60 mins in presence of ATP by ADP-Glo reagent based assay relative to control; assay type: protein-complex assay; conditions: time 70.0 min
[5] = biological target: CDK3/Cyclin E (Homo sapiens) (UniProt P24864+Q00526); test: Inhibition of CDK3/Cyclin E1 (unknown origin) at 200 nM preincubated for 10 mins followed by substrate addition and measured after 60 mins in presence of ATP by ADP-Glo reagent based assay relative to control; assay type: protein-complex assay; conditions: time 70.0 min
[6] = biological target: Cyclin-dependent kinase 4/cyclin D1 (Homo sapiens) (UniProt P11802+P24385); test: Inhibition of CDK4/Cyclin D1 (unknown origin) at 200 nM preincubated for 10 mins followed by substrate addition and measured after 60 mins in presence of ATP by ADP-Glo reagent based assay relative to control; assay type: protein-complex assay; conditions: time 70.0 min
[7] = biological target: CDK6/cyclin D3 (Homo sapiens) (UniProt P30281+Q00534); test: Inhibition of CDK6/cyclin D3 (unknown origin) at 200 nM preincubated for 10 mins followed by substrate addition and measured after 60 mins in presence of ATP by ADP-Glo reagent based assay relative to control; assay type: protein-complex assay; conditions: time 70.0 min
[8] = biological target: Cyclin-Y/Cyclin-dependent kinase 16 (Homo sapiens) (UniProt Q00536+Q8ND76); test: Inhibition of CDK16/cyclin Y (unknown origin) at 200 nM preincubated for 10 mins followed by substrate addition and measured after 60 mins in presence of ATP by ADP-Glo reagent based assay relative to control; assay type: protein-complex assay; conditions: time 70.0 min
[9] = biological target: Cyclin-C/Cyclin-dependent kinase 19 (Homo sapiens) (UniProt Q9BWU1+P24863); test: Inhibition of CDK19/cyclin C (unknown origin) at 200 nM preincubated for 10 mins followed by substrate addition and measured after 60 mins in presence of ATP by ADP-Glo reagent based assay relative to control; assay type: protein-complex assay; conditions: time 70.0 min
[10] = tested on: Epidermal growth factor receptor (Homo sapiens), P00533 [L858R,T790M,C797S]; test: Inhibition of EGFR T790M/C797S/L858R triple mutant (unknown origin) at 2500 nM preincubated for 10 mins followed by substrate addition and measured after 60 mins in presence of ATP by ADP-Glo reagent based assay relative to control; conditions: time 70.0 min
[11] = biological target: Dual specificity protein kinase CLK1 (Homo sapiens) (UniProt P49759); test: Inhibition of CLK1 (unknown origin) at 500 nM preincubated for 10 mins followed by substrate addition and measured after 60 mins in presence of ATP by ADP-Glo reagent based assay relative to control; conditions: time 70.0 min
[12] = biological target: Mitogen-activated protein kinase 15 (Homo sapiens) (UniProt Q8TD08); test: Inhibition of ERK7 (unknown origin) at 500 nM preincubated for 10 mins followed by substrate addition and measured after 60 mins in presence of ATP by ADP-Glo reagent based assay relative to control; conditions: time 70.0 min
[13] = tested on: NCI-H1975; test: Downregulation of Mcl-1 level in human Osimertinib-resistant NCI-H1975 cell measured after 8 hrs by Western blotting analysis; assay type: functional, cell-based; conditions: dose 0.05-2 µM
[14] = tested on: NCI-H1975; test: Downregulation of Mcl-1 level in human Osimertinib-resistant NCI-H1975 cell at 500 nM measured after 8 hrs by Western blotting analysis; assay type: functional, cell-based
[15] = Downregulation of Mcl-1 level in human Osimertinib-resistant NCI-H1975 cell at 500 nM measured after 8 hrs by Western blotting analysis relative to control; assay type: functional
[16] = Antiproliferative activity against human Osimertinib-resistant NCI-H1975 cell assessed as cell growth inhibition incubated for 72 hrs in presence of osimertinib by MTT assay; assay type: functional, cell-based; conditions: NCI-H1975, 72 h
[17] = tested on: NCI-H1975; test: Induction of apoptosis in human Osimertinib-resistant NCI-H1975 cell assessed as increase in percentage of apoptotic cells measured after 16 hrs by Annexin V-FITC and PI staining based analysis; assay type: functional; conditions: dose 125-2000 nM
[18] = tested on: NCI-H1975; test: Downregulation of cleaved PARP level in human Osimertinib-resistant NCI-H1975 cell measured after 16 hrs by Western blot analysis; assay type: functional, cell-based; conditions: dose 125-2000 nM
[19] = tested on: NCI-H1975; test: Downregulation of cleaved caspase-3 level in human Osimertinib-resistant NCI-H1975 cell at 125 nM measured after 16 hrs in presence of osimertinib by Western blot analysis; assay type: functional, cell-based
[20] = Induction of apoptosis in human Osimertinib-resistant NCI-H1975 cell assessed as viable cells at 125 nM measured after 16 hrs by Annexin V-FITC and PI staining based analysis (reference value: 94.9%); assay type: functional; conditions: read-out: Activity
[21] = Induction of apoptosis in human Osimertinib-resistant NCI-H1975 cell assessed as viable cells at 125 nM measured after 16 hrs in presence of osimertinib by Annexin V-FITC and PI staining based analysis (reference value: 94.9%); assay type: functional; conditions: read-out: Activity
[22] = Half life in Sprague-Dawley rat at 2 mg/kg, iv measured upto 24 hrs; assay type: ADME, organism-based; conditions: in vivo
[23] = AUC in Sprague-Dawley rat at 2 mg/kg, iv measured upto 24 hrs; assay type: ADME, organism-based; set-up: dose 2 mg/kg, time < 24 hrs, route iv; conditions: in vivo
[24] = Metabolic stability in human liver microsomes assessed as half life at 10 uM measured at 5 to 60 mins by LC-MS/MS analysis; assay type: ADME, Microsome; conditions: time 5-60 min
[25] = Solubility of the compound in water at pH 7.4 by shake flask method; assay type: physicochemical
[26] = Toxicity in ICR mouse assessed as effect on body weight loss at 100 mg/kg, iv measured for 8 to 9 days; assay type: organism-based; conditions: in vivo, time 8-9 day
[27] = Toxicity in ICR mouse assessed as morphological changes in liver at 1000 mg/kg, po measured after 9 days by H and E staining based analysis; assay type: organism-based; conditions: in vivo, 216 h, time 9 day
[28] = Toxicity in ICR mouse assessed as abnormalities in spleen at 1000 mg/kg, po measured after 9 days by H and E staining based analysis; assay type: organism-based; conditions: in vivo, 216 h, time 9 day
[29] = Antiproliferative activity against 3D-cultured human Osimertinib-resistant HCC827 cell incubated for 72 hrs by MTT assay; assay type: functional, cell-based; conditions: Osimertinib-resistant HCC827AR cell
[30] = tested on: NCI-H1975; test: Inhibition of cell growth in 3D-cultured human Osimertinib-resistant NCI-H1975 cell by DAPI and PI staining based analysis; assay type: functional; conditions: dose 0.049-3.125 µM
[31] = Antitumor activity against patient derived #0085 lung cancer organoid assessed as inhibition of growth measured after 4 days; assay type: functional, tissue-based; conditions: Homo sapiens, 96 h
[32] = cells; conditions: Homo sapiens, Osimertinib-resistant HCC827AR cell, 72 h

Sequence of CDK1/Cyclin A (Homo sapiens) (P06493 whole entry, looked up): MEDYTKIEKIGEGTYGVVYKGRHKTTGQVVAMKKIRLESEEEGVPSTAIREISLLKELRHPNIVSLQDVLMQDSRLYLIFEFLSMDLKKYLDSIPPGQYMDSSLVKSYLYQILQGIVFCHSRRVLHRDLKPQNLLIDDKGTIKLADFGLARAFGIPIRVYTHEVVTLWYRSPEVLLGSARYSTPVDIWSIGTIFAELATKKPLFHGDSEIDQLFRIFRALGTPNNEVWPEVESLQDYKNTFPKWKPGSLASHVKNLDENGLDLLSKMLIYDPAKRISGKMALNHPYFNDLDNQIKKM
Sequence of CDK1/Cyclin A (Homo sapiens) (P20248 whole entry, looked up): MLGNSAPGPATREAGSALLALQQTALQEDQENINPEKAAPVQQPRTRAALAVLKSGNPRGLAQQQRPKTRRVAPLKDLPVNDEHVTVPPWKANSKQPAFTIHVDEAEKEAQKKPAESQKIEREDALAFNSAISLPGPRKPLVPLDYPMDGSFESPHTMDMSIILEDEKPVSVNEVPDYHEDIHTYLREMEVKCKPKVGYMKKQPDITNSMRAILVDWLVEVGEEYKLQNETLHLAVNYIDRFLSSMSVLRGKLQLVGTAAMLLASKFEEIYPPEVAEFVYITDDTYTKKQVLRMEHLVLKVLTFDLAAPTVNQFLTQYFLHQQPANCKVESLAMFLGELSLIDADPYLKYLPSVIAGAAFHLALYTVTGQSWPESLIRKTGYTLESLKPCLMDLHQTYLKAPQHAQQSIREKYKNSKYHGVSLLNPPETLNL
Sequence of CDK3/Cyclin E (Homo sapiens) (P24864 whole entry, looked up): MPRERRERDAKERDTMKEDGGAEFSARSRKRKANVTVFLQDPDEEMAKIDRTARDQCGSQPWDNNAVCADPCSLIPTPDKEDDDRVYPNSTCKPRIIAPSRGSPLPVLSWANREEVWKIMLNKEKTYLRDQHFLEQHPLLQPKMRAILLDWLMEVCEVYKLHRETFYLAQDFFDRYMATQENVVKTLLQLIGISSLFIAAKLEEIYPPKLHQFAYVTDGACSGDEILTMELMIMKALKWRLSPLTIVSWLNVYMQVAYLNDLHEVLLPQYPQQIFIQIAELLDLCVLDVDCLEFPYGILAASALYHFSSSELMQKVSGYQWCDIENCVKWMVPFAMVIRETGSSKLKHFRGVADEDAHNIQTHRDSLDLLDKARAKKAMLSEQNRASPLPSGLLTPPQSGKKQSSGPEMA
Sequence of CDK3/Cyclin E (Homo sapiens) (Q00526 whole entry, looked up): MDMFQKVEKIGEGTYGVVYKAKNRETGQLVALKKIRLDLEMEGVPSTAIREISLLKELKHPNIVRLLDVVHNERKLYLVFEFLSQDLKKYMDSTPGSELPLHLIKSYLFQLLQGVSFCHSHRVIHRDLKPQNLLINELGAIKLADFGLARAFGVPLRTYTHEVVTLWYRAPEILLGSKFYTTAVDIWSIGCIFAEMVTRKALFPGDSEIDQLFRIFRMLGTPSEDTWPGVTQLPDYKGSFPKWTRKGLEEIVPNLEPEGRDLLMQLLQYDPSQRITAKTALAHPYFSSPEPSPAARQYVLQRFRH
Sequence of Mitogen-activated protein kinase 15 (Homo sapiens) (Q8TD08 whole entry): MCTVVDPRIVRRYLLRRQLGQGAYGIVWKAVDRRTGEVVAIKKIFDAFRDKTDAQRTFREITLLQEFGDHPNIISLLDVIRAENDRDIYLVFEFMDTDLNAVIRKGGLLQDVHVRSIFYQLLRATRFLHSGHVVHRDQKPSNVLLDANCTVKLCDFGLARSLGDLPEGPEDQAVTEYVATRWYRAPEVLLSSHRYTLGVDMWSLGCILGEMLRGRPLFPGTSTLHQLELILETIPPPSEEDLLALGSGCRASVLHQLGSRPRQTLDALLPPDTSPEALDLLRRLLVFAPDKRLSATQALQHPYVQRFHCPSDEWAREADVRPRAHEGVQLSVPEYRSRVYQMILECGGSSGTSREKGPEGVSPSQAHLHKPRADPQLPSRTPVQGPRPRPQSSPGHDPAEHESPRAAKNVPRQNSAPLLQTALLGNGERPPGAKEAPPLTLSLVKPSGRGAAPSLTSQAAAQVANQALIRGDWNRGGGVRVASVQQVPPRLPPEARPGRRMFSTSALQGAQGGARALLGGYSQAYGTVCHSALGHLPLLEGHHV
Sequence of Dual specificity protein kinase CLK1 (Homo sapiens) (P49759 whole entry, looked up): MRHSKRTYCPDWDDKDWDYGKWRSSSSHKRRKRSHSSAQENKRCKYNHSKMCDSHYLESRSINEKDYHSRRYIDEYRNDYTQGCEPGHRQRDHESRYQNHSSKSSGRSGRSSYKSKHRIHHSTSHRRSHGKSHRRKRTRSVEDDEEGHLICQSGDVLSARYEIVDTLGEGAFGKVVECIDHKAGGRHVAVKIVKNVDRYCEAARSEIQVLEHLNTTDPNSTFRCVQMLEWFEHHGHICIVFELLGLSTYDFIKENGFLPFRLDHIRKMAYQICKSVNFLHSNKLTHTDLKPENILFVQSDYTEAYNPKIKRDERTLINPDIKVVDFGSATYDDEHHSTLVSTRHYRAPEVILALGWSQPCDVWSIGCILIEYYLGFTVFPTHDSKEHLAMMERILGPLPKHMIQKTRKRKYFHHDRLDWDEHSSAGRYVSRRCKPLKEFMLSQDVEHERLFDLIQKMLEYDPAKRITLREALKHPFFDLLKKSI
Sequence of Epidermal growth factor receptor (Homo sapiens), P00533 [L858R,T790M,C797S] (P00533 whole entry T790M/C797S/L858R): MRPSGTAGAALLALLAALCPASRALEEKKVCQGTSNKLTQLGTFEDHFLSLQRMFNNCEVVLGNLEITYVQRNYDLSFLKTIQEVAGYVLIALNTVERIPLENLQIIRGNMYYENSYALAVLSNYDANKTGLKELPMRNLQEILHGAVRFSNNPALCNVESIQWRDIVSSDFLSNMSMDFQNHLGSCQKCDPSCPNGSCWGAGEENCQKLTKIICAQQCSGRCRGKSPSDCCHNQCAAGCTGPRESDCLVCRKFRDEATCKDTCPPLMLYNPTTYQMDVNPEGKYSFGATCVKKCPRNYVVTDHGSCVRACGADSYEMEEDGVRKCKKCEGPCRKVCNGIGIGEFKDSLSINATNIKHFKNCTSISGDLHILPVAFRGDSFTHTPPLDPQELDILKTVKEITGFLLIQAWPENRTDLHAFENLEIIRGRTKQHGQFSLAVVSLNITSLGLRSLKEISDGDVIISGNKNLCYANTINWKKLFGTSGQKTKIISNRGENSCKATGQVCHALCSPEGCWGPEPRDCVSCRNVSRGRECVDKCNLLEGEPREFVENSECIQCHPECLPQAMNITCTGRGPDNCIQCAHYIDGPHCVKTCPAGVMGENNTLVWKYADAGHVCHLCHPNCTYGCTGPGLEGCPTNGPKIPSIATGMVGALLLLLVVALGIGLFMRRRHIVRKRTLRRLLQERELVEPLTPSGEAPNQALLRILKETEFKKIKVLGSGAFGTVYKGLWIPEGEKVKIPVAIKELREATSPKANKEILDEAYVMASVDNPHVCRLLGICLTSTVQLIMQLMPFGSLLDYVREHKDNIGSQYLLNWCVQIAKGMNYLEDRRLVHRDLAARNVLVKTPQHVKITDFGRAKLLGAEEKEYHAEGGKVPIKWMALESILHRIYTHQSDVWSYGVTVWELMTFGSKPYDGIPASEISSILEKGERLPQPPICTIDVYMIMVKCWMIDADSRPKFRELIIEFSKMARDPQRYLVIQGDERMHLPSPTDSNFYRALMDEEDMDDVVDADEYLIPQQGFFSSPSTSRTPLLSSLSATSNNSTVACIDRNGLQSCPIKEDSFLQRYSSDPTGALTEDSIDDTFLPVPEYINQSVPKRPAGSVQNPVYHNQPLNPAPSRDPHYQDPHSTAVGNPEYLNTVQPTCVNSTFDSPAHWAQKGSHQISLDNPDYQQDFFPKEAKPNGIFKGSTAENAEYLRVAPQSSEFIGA
Sequence of Receptor-type tyrosine-protein kinase FLT3 (Homo sapiens) (P36888 whole entry): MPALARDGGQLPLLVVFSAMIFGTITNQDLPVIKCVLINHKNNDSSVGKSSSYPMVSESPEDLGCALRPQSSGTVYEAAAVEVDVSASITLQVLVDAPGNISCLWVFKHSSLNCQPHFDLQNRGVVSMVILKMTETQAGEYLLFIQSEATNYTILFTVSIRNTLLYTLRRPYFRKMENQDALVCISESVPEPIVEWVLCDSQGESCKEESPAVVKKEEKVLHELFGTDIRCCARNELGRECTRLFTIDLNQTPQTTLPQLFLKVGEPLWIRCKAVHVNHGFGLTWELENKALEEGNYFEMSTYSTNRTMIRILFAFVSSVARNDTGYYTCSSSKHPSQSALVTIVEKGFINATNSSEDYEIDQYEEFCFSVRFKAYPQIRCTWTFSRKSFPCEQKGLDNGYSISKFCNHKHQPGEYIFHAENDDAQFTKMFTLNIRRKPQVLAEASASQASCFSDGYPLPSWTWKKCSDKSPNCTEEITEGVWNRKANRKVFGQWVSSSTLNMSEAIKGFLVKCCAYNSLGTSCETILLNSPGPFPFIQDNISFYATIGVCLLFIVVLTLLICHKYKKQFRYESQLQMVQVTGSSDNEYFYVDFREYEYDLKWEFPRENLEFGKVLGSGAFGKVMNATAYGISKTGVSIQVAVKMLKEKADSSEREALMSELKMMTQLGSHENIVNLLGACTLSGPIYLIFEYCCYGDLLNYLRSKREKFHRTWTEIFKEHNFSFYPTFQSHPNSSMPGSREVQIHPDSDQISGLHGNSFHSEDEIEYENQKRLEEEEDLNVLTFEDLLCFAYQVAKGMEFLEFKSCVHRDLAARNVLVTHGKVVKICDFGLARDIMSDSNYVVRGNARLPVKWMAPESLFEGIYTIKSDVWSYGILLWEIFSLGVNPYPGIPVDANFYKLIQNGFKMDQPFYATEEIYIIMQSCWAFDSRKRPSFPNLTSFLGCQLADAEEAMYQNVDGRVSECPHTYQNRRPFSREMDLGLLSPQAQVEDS

inhibition [1]: 21.2% | IC50 [2]: 409 nM | inhibition [4]: 15.7% | inhibition [5]: 29.6% | inhibition [6]: 32.1% | inhibition [7]: 11.6% | inhibition [8]: 25.9% | inhibition [9]: 11.5% | inhibition [10]: 33.3% | inhibition [11]: 96.5% | half-life [22]: 108 min | AUC at 24 h [23]: 1080 ng·h/mL | half-life at 10 µM [24]: 10.7 min | solubility thermodynamic [25]: 626 µg/mL (≈ 1130 µM) | IC50 [32]: 251 nM
Structure (SMILES): O=C(NCCN1CCOCC1)c1ccc2cc1OCCCCCCOc1cc(ccc1F)-c1nc(ncc1F)N2
Activity [3]: 75.6% | inhibition [12]: 83.5% | Activity [13]: Dose-Dependent Effect | Activity [14]: Active | Activity [15]: 90% | IC50 [16]: 83 nM | Activity [17]: Dose-Dependent Effect | Activity [18]: Dose-Dependent Effect | Activity [19]: Active | viability at 0.125 µM [20]: 88.9% | viability at 0.125 µM [21]: 78.3% | Activity [26]: Non-Toxic | Activity [27]: Non-Toxic | Activity [28]: Non-Toxic | IC50 [29]: 330 nM | inhibition [30]: Dose-Dependent Effect | IC50 [31]: 130 nM
